Measurements: ChEMBL document CHEMBL2375267, “A comprehensive review on synthesis and designing aspects of coumarin derivatives as monoamine oxidase inhibitors for depression and Alzheimer's disease” (Bioorg Med Chem, 2013)

Experiments:
[1] = target: T1, Amine oxidase [flavin-containing] B (Mus musculus, UniProt Q8BW75); test: Inhibition of mouse brain MAO-B
T1 sequence (Q8BW75 whole entry): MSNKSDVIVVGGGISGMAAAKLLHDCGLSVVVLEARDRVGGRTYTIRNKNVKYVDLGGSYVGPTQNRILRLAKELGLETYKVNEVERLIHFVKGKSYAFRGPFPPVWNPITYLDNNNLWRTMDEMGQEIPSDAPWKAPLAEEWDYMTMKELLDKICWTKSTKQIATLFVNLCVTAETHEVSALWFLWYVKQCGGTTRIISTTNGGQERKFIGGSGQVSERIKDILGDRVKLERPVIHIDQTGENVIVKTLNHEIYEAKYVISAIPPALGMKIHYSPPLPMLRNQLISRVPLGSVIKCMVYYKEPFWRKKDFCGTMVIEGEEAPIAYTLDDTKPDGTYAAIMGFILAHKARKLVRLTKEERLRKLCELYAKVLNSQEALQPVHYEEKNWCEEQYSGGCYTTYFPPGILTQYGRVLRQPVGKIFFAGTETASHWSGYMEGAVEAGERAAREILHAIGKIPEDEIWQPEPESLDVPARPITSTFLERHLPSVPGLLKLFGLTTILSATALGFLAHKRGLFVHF

[2] = Inhibition of mouse brain monoamine oxidase
[3] = target: T2, Amine oxidase [flavin-containing] A (Mus musculus, UniProt Q64133); test: Inhibition of mouse brain MAO-A
T2 sequence (Q64133 whole entry): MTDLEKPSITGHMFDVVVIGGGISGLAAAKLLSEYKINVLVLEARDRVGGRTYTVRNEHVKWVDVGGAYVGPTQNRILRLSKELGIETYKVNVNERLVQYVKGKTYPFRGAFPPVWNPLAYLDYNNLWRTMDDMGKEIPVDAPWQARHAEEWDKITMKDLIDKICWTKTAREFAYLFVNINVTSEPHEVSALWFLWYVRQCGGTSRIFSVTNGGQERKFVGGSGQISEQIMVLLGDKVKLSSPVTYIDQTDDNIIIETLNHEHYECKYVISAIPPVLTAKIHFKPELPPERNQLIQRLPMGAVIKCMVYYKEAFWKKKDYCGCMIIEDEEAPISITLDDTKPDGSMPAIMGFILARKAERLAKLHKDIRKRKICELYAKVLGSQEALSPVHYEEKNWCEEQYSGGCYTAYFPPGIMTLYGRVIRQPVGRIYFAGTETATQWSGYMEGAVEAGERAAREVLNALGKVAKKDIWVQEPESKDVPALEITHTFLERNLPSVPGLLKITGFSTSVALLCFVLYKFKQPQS

[4] = target: T3, Amine oxidase [flavin-containing] B (Homo sapiens, UniProt P27338); test: Inhibition of MAO-B (unknown origin)
T3 sequence (P27338 whole entry): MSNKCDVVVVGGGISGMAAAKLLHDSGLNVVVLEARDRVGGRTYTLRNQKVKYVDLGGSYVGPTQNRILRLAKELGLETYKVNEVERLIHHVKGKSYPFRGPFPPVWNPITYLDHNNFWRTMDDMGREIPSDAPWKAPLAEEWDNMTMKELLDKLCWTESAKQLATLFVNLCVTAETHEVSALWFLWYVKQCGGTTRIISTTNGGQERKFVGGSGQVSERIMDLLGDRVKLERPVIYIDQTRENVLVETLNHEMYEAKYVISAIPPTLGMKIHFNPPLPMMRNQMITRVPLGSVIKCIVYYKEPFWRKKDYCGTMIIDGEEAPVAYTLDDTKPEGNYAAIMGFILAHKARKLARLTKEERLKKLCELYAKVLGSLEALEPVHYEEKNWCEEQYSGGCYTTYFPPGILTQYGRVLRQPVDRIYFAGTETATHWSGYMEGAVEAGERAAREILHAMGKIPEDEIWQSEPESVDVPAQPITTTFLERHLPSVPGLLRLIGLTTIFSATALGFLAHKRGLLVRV

Homo sapiens [5] = organism: Homo sapiens; test: Selectivity index, ratio of pIC50 for MAO-B (unknown origin) to pIC50 for MAO-A (unknown origin)
Homo sapiens [6] = organism: Homo sapiens; test: Selectivity ratio for MAO-A (unknown origin) over MAO-B (unknown origin)
[7] = target: T4, Amine oxidase [flavin-containing] A (Homo sapiens, UniProt P21397); test: Inhibition of MAO-A (unknown origin)
T4 sequence (P21397 whole entry): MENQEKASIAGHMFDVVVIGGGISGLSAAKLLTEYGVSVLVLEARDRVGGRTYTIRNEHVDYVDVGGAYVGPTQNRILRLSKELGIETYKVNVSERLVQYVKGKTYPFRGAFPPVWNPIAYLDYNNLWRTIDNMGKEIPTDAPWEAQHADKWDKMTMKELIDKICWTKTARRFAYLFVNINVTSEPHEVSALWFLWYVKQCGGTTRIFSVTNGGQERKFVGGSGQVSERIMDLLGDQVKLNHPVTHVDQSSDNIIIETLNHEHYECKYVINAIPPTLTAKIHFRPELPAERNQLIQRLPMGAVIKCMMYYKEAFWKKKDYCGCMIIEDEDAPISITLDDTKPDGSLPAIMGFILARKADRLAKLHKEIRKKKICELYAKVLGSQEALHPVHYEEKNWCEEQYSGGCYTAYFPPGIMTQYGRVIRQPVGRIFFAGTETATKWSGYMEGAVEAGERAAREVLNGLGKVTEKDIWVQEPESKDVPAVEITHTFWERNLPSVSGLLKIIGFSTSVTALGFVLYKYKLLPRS

[8] = Inhibition of mouse brain monoamine oxidase using kynuramine as substrate by fluorometric analysis

For `C=C(C)[C@H](O)CC/C(C)=C/COc1ccc2ccc(=O)oc2c1`, which IC50 [1] is on record?
The IC50 was 0.5 µM.

What about the IC50 [2] of the same compound?
Its IC50 is 0.7 µM.

What about the IC50 [3] of the same compound?
Its IC50 is 1300 nM.

Which IC50 [4] does the source give for `O=C(Cl)c1cc2cc(Cl)ccc2oc1=O` here?
The IC50 was 0.01 µM.

For `C/C=C(/C)C(=O)O[C@H]1[C@@H](OC(C)=O)c2c(ccc3ccc(=O)oc23)OC1(C)C`, which IC50 [2] is on record?
The IC50 was 27.4 µM.

What does the source list for `CC(C)=CCC/C(C)=C/COc1ccc2ccc(=O)oc2c1`?
IC50 [1]: 0.6 µM; IC50 [2]: 1.7 µM; IC50 [3]: 0.0346 nM

Which results are given for `Cc1ccc2oc(=O)c(C(=O)O)cc2c1`?
Ratio pIC50 (Homo sapiens [5]): 2.8; IC50 [4]: 0.0191 µM

With `CC1(C)OC(/C=C/COc2ccc3ccc(=O)oc3c2)=CC1=O` as the compound, how does the Selectivity ratio (Homo sapiens [6]) read?
Its Selectivity ratio is 850.

For `COc1c2ccoc2cc2oc(=O)ccc12` [BERGAPTEN], which IC50 [2] is on record?
Its IC50 is 13.8 µM.

What about the IC50 [7] of the same compound?
The IC50 was 13.8 µM.

What does the source list for `O=C(O)c1cc2ccccc2oc1=O` [COUMARIN-3-CARBOXYLIC ACID]?
Ratio pIC50 (Homo sapiens [5]): 2.94; IC50 [4]: 0.0174 µM

For `O=c1ccc2cc(O)c(O)cc2o1` [ESCULETIN], which IC50 [8] is on record?
Its IC50 is 31.1 µM.

With `COc1cc2oc(=O)ccc2cc1O` [ISOSCOPOLETIN] as the compound, how does the IC50 [8] read?
The IC50 was 32.2 µM.

For `COc1c(OCC=C(C)C)ccc2ccc(=O)oc12` [LACINARTIN], which IC50 [1] is on record?
The IC50 was 28.6 µM.

And the IC50 [2]?
The IC50 was 9.2 µM.

What about the IC50 [3] of the same compound?
The IC50 was 5700 nM.

Which results are given for `O=c1ccc2cc3ccoc3cc2o1` [PSORALEN]?
IC50 [2]: 35.8 µM; IC50 [7]: 21.3 µM

With `COc1cc2ccc(=O)oc2cc1O` [SCOPOLETIN] as the compound, how does the IC50 [8] read?
The IC50 was 45 µM.
